Data published in patent publication US20240067702A1, “LACTAM-MODIFIED P[…]” (DONGBAO PURPLE STAR (HANGZHOU) BIOPHARMACEUTICAL CO., LTD., priority 2020, published 2024).
*1 amine or outer side, *2 acyl side, *3 side chain or, on linkers, in order; H or OH if unused. Where a SMILES comes first, the peptide text is derived from it. Bridges are numbered along the chain shown (N, C = ends). Side-chain parts run from the residue outwards. [ ]: non-standard residue; d: D form. The star is where a group is joined. C20 diacid = O=C(O)CCCCCCCCCCCCCCCCCCC(=O)*; γGlu = O=C(O)[C@H](CCC(=O)[*:2])N[*:1]; AEEA = NCCOCCOCC(=O)O; Aib = CC(C)(N)C(=O)O

Columns and labels:
GLP-1R = molecular target: T1, GLP-1R (Homo sapiens, UniProt P43220); test: GLP-1R agonist activity test in vitro (cAMP assay); assay type: cell-based; settings: GLP-IR Agonist Activity EC50 (−) 1% HSA, HEK293 host cell; without 1% HSA
T1 construct: host or cells: HEK293
T1 sequence (P43220 24-463): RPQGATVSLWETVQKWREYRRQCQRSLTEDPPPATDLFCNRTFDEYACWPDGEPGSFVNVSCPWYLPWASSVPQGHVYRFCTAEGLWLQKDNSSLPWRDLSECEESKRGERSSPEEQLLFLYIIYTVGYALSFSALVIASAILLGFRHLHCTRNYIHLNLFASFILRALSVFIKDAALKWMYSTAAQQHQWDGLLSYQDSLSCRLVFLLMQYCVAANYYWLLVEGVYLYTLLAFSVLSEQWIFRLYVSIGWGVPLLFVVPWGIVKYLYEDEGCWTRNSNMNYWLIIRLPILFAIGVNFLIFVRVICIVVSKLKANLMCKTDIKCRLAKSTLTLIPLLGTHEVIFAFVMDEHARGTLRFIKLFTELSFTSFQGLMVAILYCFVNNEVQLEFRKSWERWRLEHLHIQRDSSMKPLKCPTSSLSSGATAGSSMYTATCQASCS
Procedure: The cell strains were constructed by Shanghai WuXi AppTec.
The test compound was serially diluted 4-fold with 10 points. The initial concentration was 30 μM, and the dilution was completed with Bravo.
1) 100 nL of the compound was transferred to OptiPlate-384 plate using Echo.
7) The GLP-1R/GIPR cell concentration was diluted to 2.0*10^5/mL with the experimental buffer.
8) […] of the diluted cell suspension was transferred into the OptiPlate-384 plate.
9) The diluted cell suspension was incubated at room temperature for 30 minutes.
2) 10 μL of cAMP detection reagent was added.
3) The OptiPlate-384 plate was covered with TopSeal-A film and incubated at room temperature for 60 minutes.
TopSeal-A was removed and read in EnVision.

[1] = Pharmacokinetic evaluation in SD rats; assay type: in vivo; settings: rat, plasma, 0.048 mg/kg, single SC 0.048 mpk
Procedure: To test the pharmacokinetics of compounds in SD rats in vivo
The pharmacokinetic characteristics of the compounds in rodents after subcutaneous injection were tested according to the standard protocol. In the experiment, the candidate compounds were formulated into clear solutions, and a single subcutaneous injection (SC, 0.048 mpk) was given to the rats. The injection vehicle was citrate buffer (20 mM, pH=7). Whole blood was collected and prepared to obtain plasma. Drug concentration was analyzed by LC-MS/MS method, and pharmacokinetic parameters were calculated by Phoenix WinNonlin software.

[2] = Plasma protein binding (PPB) test, mouse; assay type: in vitro ADME; settings: pH 7.4, ultracentrifugation
Procedure: To study the binding of the test compounds to human/mouse plasma albumin.
1. Matrix preparation: On the day of the experiment, the plasma was thawed in cold water and centrifuged at 3220 rpm for 5 min to remove all blood clots. The pH of the obtained plasma was measured and adjusted to 7.4±0.1 using 1% phosphoric acid or 1N sodium hydroxide as needed.
2. Dilution steps of the test compounds: The test compounds were dissolved in dimethyl sulfoxide (DMSO) to prepare stock solutions at concentrations of 10 mM and 2 mM, respectively. A 40 μM working solution was prepared by diluting 2 μL of the stock solution (2 mM) with 98 μL of DMSO. A 400 μM working solution of the control compound was prepared by diluting 10 μL of the stock solution with 240 μL of DMSO. The working solution of the compound (5 μL) was mixed with the blank matrix (995 μL) at a ratio of 1:200 to prepare the loading matrix.
3.1 An equal amount of 30 μL of the loading matrix (n=2) was transferred to the sample collection plate to prepare samples of time 0 (TO) for residue determination. The samples were immediately matched to the corresponding blank buffer in a final volume of 60 μL with a 1:1 volume ratio of plasma to buffer in each well. Then, 60 μL of 4% H3PO4 in H2O and 480 μL of stop solution containing an internal standard were then added to the TO samples of the test compounds. They were then stored at 2-8° C. with other samples pending for further processing.
3.2 The remaining plasma samples were pre-incubated in a carbon dioxide incubator at 37±1° C. for 30 min. The prepared protein-free samples (F samples) and loading matrix samples (230 μL) were transferred to polycarbonate tubes (n=2) and ultracentrifuged at 37° C. and 155000×g (35000 rpm) for 4 hours.
3.3 To prepare T samples (test samples), an additional matrix-containing sample was transferred to a separate 96-well plate (sample incubation plate) and incubated at 37° C. for 4 hours.
3.4 After centrifugation, 30 μL of protein-free sample and 30 μL of T sample were transferred from the second layer of supernatant (below the upper layer) to a new sample collection plate. Each sample was mixed with the corresponding blank buffer or matrix in a final volume of 60 μL with a matrix:buffer volume ratio of 1:1. 60 μL of 4% H3PO4 aqueous solution and 480 μL of stop solution (containing internal standard) were added to all samples. The mixture was centrifuged at 4000 rpm for 20 min, and 100 μL of the supernatant of each sample was taken for LC-MS/MS analysis.

[3] = Plasma stability (PLS) test, mouse plasma; assay type: in vitro ADME; settings: pH 7.4, 37° C., up to 120 min, read-out: PLS (H/M) T1/2
Procedure: To study the stability of test compounds in the plasma of normal mice.
1. Before the experiment, the coagulated frozen plasma was thawed in a water bath at 37° C. Plasma was centrifuged at 4000 rpm for 5 min. If there was blood clot, the blood clot was removed and the pH value was adjusted to 7.4±0.1.
2. Preparation of the test compound solution: 100 μM of the solution was prepared by dilution with DMSO.
3. 98 μL of blank control plasma was added to 2 μL of the test compound solution (100 μM), so that the final concentration of the mixed solution of the two reached 2 μM, and the mixed solution was placed in a 37° C. water bath for incubation.
4. At each time point (0, 10, 30, 60, and 120 min), 1(X) μL of H3PO4 solution and 800 μL of stop solution (200 ng/mL of tolbutamide and 200 ng/mL of labetalol in 100% methanol solution) were added to precipitate protein, and mixed thoroughly.
5. The samples were centrifuged at 4000 rpm for 20 min, and 1(X) μL of supernatant was taken from each well for LC-MS/MS analysis.

[4] = Kidney homogenate stability (BHS) test; assay type: in vitro ADME; settings: normal mouse kidney homogenate, 37° C.; read-out: BHS (T1/2 (min))
Procedure: To study the stability of the test compounds in normal mouse kidney homogenate.
1. Before the experiment, the frozen kidney homogenate was thawed in a 37° C. water bath.
2. Test compounds: 10 mM stock solution was diluted with DMSO to prepare 1 mM intermediate solution;
3. test compounds: 1 mM intermediate solution was diluted with DMSO to prepare 50 μM dosing solution;
4. at each time point (0, 10, 30, 60, 120, 180, 240 min), 100 μL of 4% H3PO4 and 800 μL of stop solution were added to precipitate the protein, and mixed thoroughly.
5. The samples were centrifuged at 4000 rpm for 10 min, and 100 μL of supernatant was taken from each well to the plate. The samples were shaken at 800 rpm for approximately 10 min before submitting for LC-MS/MS test.

`CC[C@H](C)[C@H](NC(=O)[C@H](CC(C)C)NC(=O)[C@H](Cc1c[nH]c2ccccc12)NC(=O)[C@@H]1CCC(=O)NCCCC[C@H](NC(=O)[C@H](CCC(N)=O)NC(=O)[C@H](C)NC(=O)[C@H](CCCCNC(=O)COCCOCCNC(=O)COCCOCCNC(=O)CC[C@H](NC(=O)CCCCCCCCCCCCCCCCCCC(=O)O)C(=O)O)NC(=O)[C@H](CCCCN)NC(=O)[C@H](CC(=O)O)NC(=O)[C@H](CC(C)C)NC(=O)C(C)(C)NC(=O)[C@@H](NC(=O)[C@H](CO)NC(=O)[C@H](Cc2ccc(O)cc2)NC(=O)[C@H](CC(=O)O)NC(=O)[C@H](CO)NC(=O)[C@@H](NC(=O)[C@H](Cc2ccccc2)NC(=O)[C@@H](NC(=O)CNC(=O)[C@H](CCC(=O)O)NC(=O)C(C)(C)NC(=O)[C@@H](N)Cc2ccc(O)cc2)[C@@H](C)O)[C@@H](C)O)[C@@H](C)CC)C(=O)N[C@@H](CCC(=O)O)C(=O)N[C@@H](Cc2ccccc2)C(=O)N[C@@H](C(C)C)C(=O)N1)C(=O)N[C@@H](C)C(=O)NCC(=O)NCC(=O)N1CCC[C@H]1C(=O)N[C@@H](CO)C(=O)N[C@@H](CO)C(=O)NCC(=O)N[C@@H](C)C(=O)N1CCC[C@H]1C(=O)N1CCC[C@H]1C(=O)N1CCC[C@H]1C(=O)N[C@@H](CO)C(N)=O` [WX-005] (H-Y[Aib]EGTFTSDYSI[Aib]LDKK([AEEA-AEEA-γGlu-C20 diacid])AQKEFVEWLIAGGPSSGAPPPS-NH2; lactam 20-24) gave an EC50 (GLP-1R) of 0.042 nM, a half-life ([1]; read-out: Half-life T1/2 (converted)) of 17 h and a Cmax ([1]; read-out: Maximum Plasma Concentration) of 0.014 µM. For the same molecule, the AUC(0-t) ([1]; read-out: SC Concentration Integral AUC0-72 h) was 1330 nM·h, the fraction unbound at 4 h, 0.2 μM [2] was 0.0022 and the half-life at 2 μM [3] was over 4.82 h. For the same molecule, the half-life [4] was 21 min.
